Measured values as given in US9512090B2, “Tetrazolinone compound and use thereof” (Sumitomo Chemical Company, Limited, priority 2013, dated 2016).

How the values were obtained:
[1] = test system: common house mosquito (Culex pipiens pallens); experiment: Test Example 12: common house mosquito larvae mortality in treated water; type: in vivo; details: active ingredient 3.5 ppm in water; last instar larvae; after 8 days
Experimental: A water dilution containing a surfactant prepared by adjusting so as to contain a predetermined concentration (500 ppm) of any one compound of the present compounds 20, 29, and 79 was used as a test chemical solution.
The above test chemical solution (0.7 mL) was added to 100 mL of deionized water to adjust the concentration of an active ingredient to 3.5 ppm. Twenty (20) heads of last instar larvae of common house mosquito (Culex pipiens pallens) were released in the solution and the number of dead insects was counted after 8 days.
Mortality was determined by the following equation. Mortality (%)=(number of dead insects/number of test insects)×100

[2] = test system: cucumber powdery mildew fungus (Sphaerotheca fuliginea); experiment: Test Example 6 and Comparative Test Example: cucumber powdery mildew control by foliar spray; type: in vivo; details: 500 ppm spray on cucumber (SAGAMI HANJIRO); 8 days after inoculation

Question: With Cc1cc(OCc2c(C)cccc2-n2nnn(C)c2=O)ccc1-c1ccccc1 [compound 29] as the compound, how does the mortality [1] read?
Answer: Its mortality is 100%.

Question: For COc1ccccc1-c1ccc(OCc2c(OC)cccc2-n2nnn(C)c2=O)c(C)c1 [compound 20], which mortality [1] is on record?
Answer: The mortality was 100%.

Question: Which “area of lesion spots on the treated plant relative to that on an untreated plant” value [2] does the source give for Cc1ccc(OCc2ccccc2-n2nnn(C)c2=O)cc1 [1-{2-(4-methylphenoxymethyl)phenyl}-4-methyl-1,4-dihydrotetrazol-5-one] here?
Answer: The value was ≥ 70%.

Question: For CCN(c1ccccc1)c1ccc(OCc2c(C)cccc2-n2nnn(C)c2=O)c(C)c1 [compound 79], which mortality [1] is on record?
Answer: Its mortality is 100%.
